The record followed here is US12195804B2, “Treatment of squamous cell carcinoma” (Board of Regents, The University of Texas System, priority 2018, dated 2025).

One experiment has as its system PJ34 cells. Description: CellTiter-Glo viability, PJ34 parental and NOTCH1 KO. In kind it is cell-based, human. The following applies: 72 hours. How it is done:
FIGS. 9A-9D: NOTCH1 knockout (KO) sensitizes two NOTCH1^WT head and neck squamous cell carcinoma (HNSCC) cell lines to PI3K/mTOR pathway inhibition in vitro. Two NOTCH1^WT HNSCC cell lines (PJ34 and UMSCC49 [UM49]), parental cell lines, and NOTCH1 KO cell lines were treated with PI3K/mTOR pathway inhibitors. FIG. 9A. The CellTiter-Glo assay was used to assess the viability of cells treated for 72 hours with the indicated concentrations of GSK2126458 (GSK212). FIG. 9B. Western blot analysis of apoptosis markers, NOTCH1, and NOTCH intracellular domain (NICD) was performed after treatment with the indicated concentrations of GSK212 for 48 hours. FIG. 9C. Apoptosis in cells treated with 50 nM GSK212 or 200 nM BEZ235 for 48 hours was measured using an Annexin V/propidium iodide assay. Values are the means±standard deviations of three independent experiments. *p<0.05, unpaired two-tailed Student t-test. FIG. 9D. […] Colony areas as percentages of the control were measured using ImageJ. […]
Cell viability assay. […] Inhibitory concentration (ICs) and area under the curve (AUC) values were calculated using the drexplorer R package with a best-fit dose-response model (Zumsteg et al., 2016). The combination indices were calculated using the Chou-Talalay method (Cal et al., 2017) in CalcuSyn (Biosoft, Cambridge, UK). […]
For orientation: Cellular ATP, detected with luciferase, serves as a proxy for viable cell number.

For experiment [1], the system named is HN31 and UMSCC22A subcutaneous xenografts. Kind of experiment: Subcutaneous xenograft models of NOTCH1MUT HNSCC. The format is in vivo, athymic nude mice. The following applies: 1 mg/kg oral gavage daily 28 days. How it is done: FIGS. 8A-8D: PI3K/mTOR pathway inhibitors cause apoptosis and reduce tumor size in NOTCH1^MUT head and neck squamous cell carcinoma (HNSCC) in vivo. FIGS. 8A and 8B. The NOTCH1^MUT cell lines HN31 (FIG. 8A) and UMSCC22A (UM22A; FIG. 8B) were injected subcutaneously (SQ) into athymic nude mice. After tumors reached 150 mm^3, the mice were randomized to receive either vehicle control (2-hydroxypropyl-β-cyclodextrin) or 1 mg/kg GSK2126458 (GSK212) by oral gavage daily for 28 days. Tumor sizes were measured and tumor volumes were calculated at the indicated times, and the percent change in tumor volume at the end of therapy was calculated using the formula (final tumor volume−initial tumor volume/initial tumor volume)×100%. The percentages of TUNEL-positive cells were calculated from image quantification at 40× magnification. FIGS. 8C and 8D. HN31 (FIG. 8C) and UM22A (FIG. 8D) were implanted orthotopically (OT) into the anterior tongues of athymic nude mice. […] Tumor sizes were measured, and tumor volumes and percent changes in tumor volumes were calculated as above. […] The percentages of TUNEL-positive cells were calculated as described above. Data are means±standard deviations from 5 mice per group; p values were calculated using an unpaired t-test with the Welch correction. […]

On to `COc1ncc(-c2ccc3nccc(-c4ccnnc4)c3c2)cc1NS(=O)(=O)c1ccc(F)cc1F` [GSK2126458], for which, in the experiment on PJ34 cells (PJ34 NOTCH1 KO), the IC70 – broadly, the concentration needed for an effect of 70% – is 24 nM. Besides, in the experiment with PJ34 cells (PJ34 parental), the IC70 turned out to be 100 nM. In addition, in experiment [1], the “apoptosis in tumors (TUNEL staining)” value is reported as “significant apoptosis” and the tumor volume entry is “regressed”.
